Data from the METLIN SMRT retention time set (Domingo-Almenara et al. 2019).

Assay: gradient 5% acetonitrile 3 min, to 50% in 2 min, to 85% in 15 min, held 3 min, 100 µL/min
Settings: column: Zorbax Extend-C18 2.1 x 50 mm; eluents: water / acetonitrile, 0.1% formic acid
How it was run: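 Over 3 months, pure standards in mixtures of ~100 molecules were run by HPLC coupled to a quadrupole time-of-flight mass spectrometer in positive and negative ionization mode. The column was a Zorbax Extend-C18 (2.1 × 50 mm, 1.8 μm) at 100 μL/min, eluted with water and acetonitrile each holding 0.1% formic acid, with 40 μL dead and 900 μL dwell volumes. Retention time was determined from adduct peaks chosen by software and checked manually.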

Row | SMILES | RP-LC retention time [s]
1 | O=C(Nc1nc2c(s1)CN(C(=O)c1cc(-c3ccc(F)cc3)n[nH]1)CC2)c1ccco1 | 717
2 | Cc1cnc2c(N)cc(C)c(C)c2c1 | 715
3 | CC(C)CCN1CCC(N2CCN(S(=O)(=O)c3ccccc3F)CC2)C1=O (stereo not given) | 662
4 | COc1cc(C)c(C)cc1S(=O)(=O)NCC1CCN(c2ncccn2)CC1 | 806
5 | O=C(Nc1ccc(Cl)cc1F)c1cccn1Cc1noc(C2CC2)n1 | 1020
6 | CC(C)Cn1cc(S(=O)(=O)NCc2ccccc2F)c2cccnc21 | 932
7 | Cc1ccc(-c2csc(NC(=O)CCCc3nc(-c4ccccc4Cl)no3)n2)cc1 | 1180
8 | O=C(Cc1csc2nc(-c3cccc(Br)c3)cn12)N1CCc2ccccc21 | 1040
9 | CCS(=O)(=O)N1CCCc2cc(C(=O)NC(C)c3ccccc3)ccc21 (stereo not given) | 870
10 | CCS(=O)(=O)Nc1ccc(C2(C(=O)N3CCCC(C)C3)CCCCC2)cc1 (stereo not given) | 1010
11 | Cc1noc(C)c1CC(=O)N1CCCC(c2nnc3n2CCN(C(=O)C2CC2)C3)C1 (stereo not given) | 596
12 | COc1ccc(-n2c(CN3CCN(C(=O)NCc4ccco4)CC3)nc3cccnc32)cc1 | 617
13 | CC1=NS(=O)(=O)c2cccnc2N1c1cccc(Br)c1 | 825
14 | Cc1ccc(NC(=O)N2CCCC2c2nc(-c3cccc(Cl)c3)no2)cc1 (stereo not given) | 1110
15 | Cc1ccccc1CNC(=O)CN1CCN(Cc2ccc(F)cc2)C1=O | 803
16 | COc1ccc(OCc2ccc(C(=O)Nc3ccc4c(c3)OCO4)o2)cc1 | 879
17 | COC(=O)c1cc2nc(-c3ccc(F)cc3)cc(C)n2n1 | 866
18 | CCNc1cc(N2CCC(CCC(=O)NCc3ccccc3)CC2)ncn1 | 647
19 | Cc1nc(C2CCOCC2)n(C2CCN(S(=O)(=O)c3ccc(C(C)(C)C)cc3)C2)n1 (stereo not given) | 871
20 | CC(C)(C)C(O)CCNC(=O)c1ccc(C(F)(F)F)cc1 (stereo not given) | 813
21 | O=C(Nc1ccc2c(c1)OCO2)c1noc2c1CCCCC2 | 967
22 | CCCC(NC(=O)c1ccccn1)C(=O)Nc1nc2ccccc2[nH]1 (stereo not given) | 670
23 | Cn1cc(CCN2CCC(C(=O)NCc3cccc(Cl)c3)CC2)c2cccnc21 | 630

Row | SMILES | RP-LC retention time [s]
24 | Cc1cc2n(n1)CCCN2C(=O)CCC(=O)N1CCN(Cc2ccc3c(c2)OCO3)CC1 | 577
25 | COc1ccc(NC(=O)N2CCCC(Cn3cnc4cccnc43)C2)cc1OC (stereo not given) | 620
26 | CSc1ncc2ncn(C3OC(CO)C(O)C3O)c2n1 (stereo not given) | 623
27 | O=C(Cc1ccsc1)N1CCN(c2ncnc3c2CCC3)CC1 | 594
28 | O=C(NC1CCN(c2cc(-c3ccc(Cl)cc3)[nH]n2)C1)c1cccc(OC(F)(F)F)c1 (stereo not given) | 862
29 | Clc1ccc(Sc2c(-c3ccc(Br)cc3)nc3ccccn23)cc1 | 1290
30 | CN(C)C(=O)CN1CCN(c2ccccc2)CC1 | 792
31 | CCc1nccn1Cc1noc(-c2ccccc2Cl)n1 | 564
32 | COc1ccc(CNC(=O)c2nc(N3CCSCC3)c3cnn(C)c3n2)cc1 | 775
33 | CCN(CC)CCCn1c(C)cc2c(c1=O)C(c1ccccc1OC)C(C#N)=C(N)O2 (stereo not given) | 626
34 | COCCC1(N(C)C)CCN(C(=O)CC2CCCCC2)CC1 | 621
35 | COc1cc(OC)cc(-c2nnc(-c3ccccc3Cl)o2)c1 | 1070
36 | Cc1ccc(NC(=O)c2ccc(CN3CCN(C)CC3)cc2)cc1Nc1nccc(-c2cccnc2)n1 | 640
37 | CCN1C(=O)c2ccccc2S(=O)(=O)c2ccc(C(=O)N3CCN(c4ccccn4)CC3)cc21 | 615
38 | COc1cccc(S(=O)(=O)N2C[C@@H]3C[C@H]2C[C@@H]3NC(=O)c2cccs2)c1 | 854
39 | CCCSCCCNC(=O)c1cc2n(n1)CCCN(Cc1ccc(F)cc1)C2=O | 827
40 | CN(C)CCOc1ccc(I)cc1Cc1ccccc1 | 739
41 | COc1ccc(OC)c(CNC(=O)C2CCCN(c3ccc(-c4ccccc4)nn3)C2)c1 (stereo not given) | 704
42 | Cc1c(-c2ccnc(N3CCCCC3)n2)cnc2nc(-c3ccccc3)nn12 | 1180
43 | O=C(Cc1cccs1)NCC1CCN(C(=O)Oc2ccccc2)CC1 | 635
44 | COc1cccc(Cc2nc(-c3ccc4c(c3)nc(C)c(=O)n4C)no2)c1 | 899
45 | COc1ccc(CNC(=O)c2ccc3c(c2)N(C)C(=O)C2CCCCN32)c(OC)c1 (stereo not given) | 868
46 | COc1ccc(-c2nc3cnc(Br)cn3c2Nc2ccc3c(c2)OCO3)cc1 | 926

Row | SMILES | RP-LC retention time [s]
47 | CCN1CCn2cc(S(=O)(=O)Nc3ccc(OC)cc3)cc2C1=O | 684
48 | Cc1ccc(N2C(=O)CN(S(=O)(=O)c3ccccc3)CC2(C)C(=O)NCc2ccc(F)cc2)cc1 (stereo not given) | 875
49 | Cc1ccc(C)c(N2CCN(C(=O)C3CCCN(c4nc5ccccc5n(C)c4=O)C3)CC2)c1 (stereo not given) | 1280
50 | O=C(Cc1ccc(Cl)cc1)NCc1nc(-c2ccc(-c3csc(C4CC4)n3)cc2)no1 | 1110
51 | CCc1cc(=O)n(CC(=O)Nc2ccc(OC)c(Cl)c2)c(N2CCOCC2)n1 | 772
52 | Cc1cc(-c2nnc(-c3ccco3)o2)c(C)n1CC(=O)NCc1ccccc1Cl | 863
53 | COc1ccc(C(=O)Nc2nnc(SCc3ccccc3Cl)s2)cc1OC | 954
54 | Cc1ccc(C)c(-c2csc(Nc3ccc(S(=O)(=O)Nc4nc(C)cc(C)n4)cc3)n2)c1 | 1030
55 | CCn1ccc2cc(S(=O)(=O)N3CCCC(C(=O)NCc4cc(OC)ccc4OC)C3)ccc21 (stereo not given) | 988
56 | O=C(Cn1cnc(-c2noc(-c3ccncc3)n2)c1)N1CCc2ccccc21 | 634
57 | CCCN(CC1CCOC1)S(=O)(=O)c1ccc(C)c(F)c1 (stereo not given) | 878
58 | COc1ccc(N2CCN(C(=O)C3c4ccccc4CCN3C(=O)C3CC3)CC2)cc1 (stereo not given) | 811
59 | NC(=O)COC1CCC12CCN(C(=O)C1CCCCC1)CC2 (stereo not given) | 715
60 | CCCN(CCC)S(=O)(=O)c1ccc(Cl)c(OC)c1 | 1030
61 | CC(C)NC(C)Cc1ccc(I)cc1 (stereo not given) | 746
62 | CCOc1ccc(NC(=O)Cn2cnc3nc(N4CCC(C(=O)NC5CC5)CC4)sc3c2=O)cc1 | 675
63 | Cc1ccc(CNC(=O)C2(C)CN(S(C)(=O)=O)CC(=O)N2c2ccc(F)cc2)cc1 (stereo not given) | 746
64 | Cc1c(C(=O)N2CCSCC2)cnn1-c1ncccc1-c1nc(C2CC2)no1 | 740
65 | CCS(=O)(=O)N1C[C@@H](COC)[C@H](c2ccccn2)C1 | 585
66 | Cc1ccn2cc(-c3ccc(NC(=O)c4cccc(Br)c4)cc3)nc2n1 | 692
67 | Cc1nc(N2CCOCC2)c2c(C(=O)Nc3ccccc3Cl)c(C)oc2n1 | 911
68 | Cc1csc(-c2cc(S(=O)(=O)NCCc3cccs3)c(C)n2C)n1 | 973
69 | O=C(NC1CCCCCC1)C1CCc2sc(C(=O)N3CCOCC3)cc2C1 (stereo not given) | 789

Row | SMILES | RP-LC retention time [s]
70 | O=C(Cn1cnc2cc3c(cc21)OCCO3)NCc1ccc2c(c1)OCCCO2 | 596
71 | COc1ccc(OC)c(N2CC(c3nc4ccccc4n3CCN3CCOCC3)CC2=O)c1 (stereo not given) | 597
72 | CCCCN(CCCC)C(=O)C1CCCN1S(=O)(=O)c1cccc2nsnc12 (stereo not given) | 1080
73 | CCCOc1ccccc1C(=O)N(Cc1ccc(Br)o1)C1CCS(=O)(=O)C1 (stereo not given) | 927
74 | Cc1nn(C(C)C(=O)NCCC(C)C)c(=O)c2c(C)n(-c3ccccc3)nc12 (stereo not given) | 948
75 | Cc1noc([C@@H]2CC(F)(F)CN2S(=O)(=O)c2cccc(F)c2)n1 | 891
76 | Cn1c(=O)n(C)c2cc(CNc3ccc(C(=O)O)c(Cl)c3)ccc21 | 697
77 | CCc1cccc(NC(=O)c2cn(C)nc2S(=O)(=O)N2CCSCC2)c1 | 1030
78 | COc1cccc2sc(N3CCN(c4ccccc4)CC3)nc12 | 996
79 | COc1cc(-c2noc(Cn3c(=O)n(-c4ccccc4)c(=O)c4sccc43)n2)cc(OC)c1OC | 868
80 | COC(=O)c1cn(C(=O)c2ccccc2)c2ccccc12 | 1090
81 | Cn1c(=O)c(N2CCN(S(=O)(=O)c3ccc4c(c3)CCCC4)CC2)nc2ccncc21 | 765
82 | CCn1c(=O)c(C(=O)NC(C)C)nc2cc(C)c(C)cc21 | 803
83 | COc1ccccc1N1CCN(C(=O)c2ccc(=O)n(Cc3ccc(F)cc3)n2)CC1 | 763
84 | CC[C@H](NC(=O)c1c(C)c(-c2ccccc2)nc2ccccc12)c1ccccc1 | 1060
85 | CCN1CCn2cc(S(=O)(=O)Nc3ccc(F)c(C)c3)cc2C1=O | 742
86 | CCN1c2ccccc2C(=O)NC12CCN(C(=O)Nc1ccc3c(c1)OCO3)CC2 | 737
87 | O=C(Nc1cccc(N2CCCCC2=O)c1)OCc1ccccc1 | 724
88 | O=C(NCc1ccccc1)C1CCCN(c2nnc3ccc(Cl)cn23)C1 (stereo not given) | 739
89 | Cc1ccc(S(=O)(=O)N2CCc3c(c(-c4nnc(-c5ccccc5)o4)nn3C)C2)cc1C | 1020
90 | COc1ccc(-c2cc(=O)n(CCNC(=O)c3c(F)cccc3F)cn2)cc1 | 678
